Experimental data taken from the supplement of paper PMC10307832.

Experiments:
Experiment in all cases: relative viability (nuclei count vs DMSO), 5 days (fraction); higher = more cells survive
Bemcentinib + Vorinostat = compound: Nc1nc(Nc2ccc3c(c2)CC[C@@H](N2CCCC2)CC3)nn1-c1cc2c(nn1)-c1ccccc1CCC2 [Bemcentinib] + O=C(CCCCCCC(=O)Nc1ccccc1)NO [Vorinostat] (partner 1 µM)
How it was run: (§1)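 Five library-drug doses in √10 steps were combined with a fixed anchor-drug dose, or a single drug was given alone, by pin tool to lung cancer cell lines in 1536-well plates the day after seeding. Nuclei were stained and counted after 5 days. Relative viability is the nuclei count in treated wells over that in vehicle wells, taken as the median of duplicate plates.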

[1] = compound: CC1=CC=C(C=C1)C(=O)CN2C3=C(CCCC3)SC2=N [Pifithrin_alpha] + Cc1nc(Nc2ncc(C(=O)Nc3c(C)cccc3Cl)s2)cc(N2CCN(CCO)CC2)n1 [Dasatinib] (partner 0.075 µM)
How it was run: as §1

Axitinib + OSI-027 = compound: CNC(=O)c1ccccc1Sc1ccc2c(/C=C/c3ccccn3)n[nH]c2c1 [Axitinib] + COc1cccc2cc(-c3nc([C@H]4CC[C@H](C(=O)O)CC4)n4ncnc(N)c34)[nH]c12 [OSI-027] (partner 0.5 µM)
How it was run: as §1

[2] = compound: CC1=CC=C(C=C1)C(=O)CN2C3=C(CCCC3)SC2=N [Pifithrin_alpha] + CCNC(=O)c1noc(-c2cc(C(C)C)c(O)cc2O)c1-c1ccc(CN2CCOCC2)cc1 [Luminespib] (partner 0.01 µM)
How it was run: as §1

Cell Line	relative viability (Bemcentinib + Vorinostat; first compound 0.04 µM)	relative viability (Bemcentinib + Vorinostat; first compound 0.1265 µM)	relative viability (Bemcentinib + Vorinostat; first compound 0.4 µM)	relative viability (Bemcentinib + Vorinostat; first compound 1.265 µM)	relative viability (Bemcentinib + Vorinostat; first compound 4 µM)	relative viability ([1]; first compound 1 µM)	relative viability ([1]; first compound 3.162 µM)	relative viability ([1]; first compound 10 µM)	relative viability ([1]; first compound 31.62 µM)	relative viability ([1]; first compound 100 µM)	relative viability (Axitinib + OSI-027; first compound 0.005 µM)	relative viability (Axitinib + OSI-027; first compound 0.01581 µM)	relative viability (Axitinib + OSI-027; first compound 0.05 µM)	relative viability (Axitinib + OSI-027; first compound 0.1581 µM)	relative viability (Axitinib + OSI-027; first compound 0.5 µM)	relative viability ([2]; first compound 1 µM)	relative viability ([2]; first compound 3.162 µM)	relative viability ([2]; first compound 10 µM)	relative viability ([2]; first compound 31.62 µM)	relative viability ([2]; first compound 100 µM)
NCI-H661	0.774	0.778	0.849	0.789	0.838	0.967	0.842	0.801	0.62	0.76	0.741	0.754	0.721	0.617	0.855	0.912	0.915	0.949	0.881	0.921
NCI-H727	1.02	1.14	1.18	0.858	1.2	0.357	0.421	0.394	–	0.346	0.785	0.425	0.54	0.528	0.699	0.44	0.238	0.491	–	0.263
NCI-H838	0.746	0.799	0.718	0.82	0.719	0.259	0.28	0.245	0.234	0.229	0.5	0.361	0.436	0.38	0.493	0.248	0.292	0.263	0.237	0.198
NCI-H1355	0.596	0.617	0.701	0.65	0.687	0.502	0.409	0.386	0.414	0.445	0.42	0.384	0.492	0.432	0.492	0.642	0.496	0.516	0.401	0.409
